Consider 15 molecules from patent US9932331B2, “Phenyl tetrahydroisoquinoline compound substituted with heteroaryl” (TAISHO PHARMACEUTICAL CO., LTD, priority 2014, dated 2018).

In the test the target is T1, human NHE3 (Homo sapiens, UniProt P48764).
T1 sequence (P48764 26-834): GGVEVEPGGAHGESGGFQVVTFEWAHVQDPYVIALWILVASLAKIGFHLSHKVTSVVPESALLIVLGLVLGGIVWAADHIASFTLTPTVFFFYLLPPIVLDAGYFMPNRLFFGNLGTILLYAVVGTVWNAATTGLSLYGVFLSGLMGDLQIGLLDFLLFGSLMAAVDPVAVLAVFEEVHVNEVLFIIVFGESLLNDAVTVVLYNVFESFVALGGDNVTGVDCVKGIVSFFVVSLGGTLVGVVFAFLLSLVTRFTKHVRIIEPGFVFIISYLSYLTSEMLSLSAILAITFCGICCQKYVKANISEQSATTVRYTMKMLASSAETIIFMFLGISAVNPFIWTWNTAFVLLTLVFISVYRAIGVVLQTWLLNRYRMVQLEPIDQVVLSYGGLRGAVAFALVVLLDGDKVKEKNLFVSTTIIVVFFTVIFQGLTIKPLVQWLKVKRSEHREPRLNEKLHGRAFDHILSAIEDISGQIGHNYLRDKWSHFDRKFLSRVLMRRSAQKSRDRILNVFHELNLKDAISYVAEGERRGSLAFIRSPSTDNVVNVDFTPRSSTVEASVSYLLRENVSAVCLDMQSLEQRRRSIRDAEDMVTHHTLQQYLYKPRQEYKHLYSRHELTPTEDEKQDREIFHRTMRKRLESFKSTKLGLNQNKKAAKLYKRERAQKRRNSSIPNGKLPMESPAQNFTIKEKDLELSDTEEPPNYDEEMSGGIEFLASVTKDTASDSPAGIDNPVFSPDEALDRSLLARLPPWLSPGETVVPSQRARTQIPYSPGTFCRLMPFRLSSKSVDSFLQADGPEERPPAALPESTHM
Nature of the test: NHE3 inhibition test (recovery of intracellular pH in cell line stably expressing human NHE3). Format: cell-based. The following applies: OK cells deficient in endogenous NHE stably expressing human NHE3; BCECF fluorescence, initial rate of pH recovery; read-out: human NHE3 inhibitory activity IC50. Here is the method: (1) Preparation of Cell Line Deficient in Endogenous NHE
The cell line deficient in endogenous NHE was prepared according to the method of Jacques Pouyssegur et al. (Proc. Natl. Acad. Sci. USA. 1984, Vol. 81, 4833-4837) using opossum kidney (OK) cells (ATCC).
(2) Preparation of Expression Plasmid and Cell Line Stably Expressing Human NHE3
The expression plasmid was constructed by inserting a human NHE3 (SLC9A3, Accession No. NM_004174) cDNA sequence (GeneCopoeia, Inc.) into a pcDNA3.2/V5-DEST vector (Life Technologies Corp.).
The OK cells deficient in endogenous NHE were transfected with the constructed human NHE3 expression plasmid to prepare stably expressing cells. The transfection was carried out by electroporation using a Nucleofector 2b device (Lonza Group Ltd.). A stably expressing cell line was selected in medium supplemented with 500 μg/mL Geneticin (Life Technologies Corp.) and isolated.
NHE3 activity measurement method using cell: The activity was determined by using the NHE3-mediated recovery of intracellular pH occurring after intracellular acidification, as an index. The intracellular pH was measured by a partial modification of the pH-sensitive fluorescent indicator method reported by Tsien et al. (Proc. Natl. Acad. Sci. USA., 1984, 81, 7436-7440).
The cell line stably expressing human NHE3 was inoculated on a poly-D-lysine-coated 96-well plate (Greiner Bio-one) and cultured overnight. […] Then, Hank's balanced salt buffer solution containing 0.25 μM BCECF-AM (Dojindo Laboratories) was added to the cells, which were then incubated at 37° C. for 30 minutes. […] The cells thus incubated in the NH4Cl buffer solution were washed with NH4Cl-free buffer solution (133.8 mM choline chloride, […], 5 mM glucose, 4.7 mM KCl, 1.25 mM CaCl2, 1.25 mM MgCl2, 0.97 mM K2HPO4, 0.23 mM KH2PO4, pH 7.4) to decrease the intracellular pH. After the washing step, 70 μL of a test compound solution prepared with the NH4Cl-free buffer solution was added to the cells, and 70 iμL of sodium ion-containing buffer solution (133.8 mM NaCl, 10 mM HEPES, 5 mM glucose, 4.7 mM KCl, 1.25 mM CaCl2, 1.25 mM MgCl2, 0.97 mM Na2HPO4, 0.23 mM NaH2PO4, pH 7.4) was added thereto in a measurement system FDSS6000 (Hamamatsu Photonics K.K.) to start the recovery of pH. The recovery of intracellular pH was monitored using BCECF fluorescence (excitation wavelength: 480 nm, fluorescence wavelength: 520 to 560 nm), and the initial rate of the pH recovery was plotted. The recovery of pH without test compound was defined as the maximum recovery, and the test compound concentration necessary to inhibit 50% of the maximum recovery was calculated as an IC50 value.

pIC50: −log10 of the molar value. Where a name gives a salt, the structure may show the parent alone.

As usually defined, the pIC50 is the IC50 on a negative log10 scale, so that one unit is a factor of ten. For `CN1Cc2c(Cl)cc(Cl)cc2[C@H](c2cccc(-c3cc(NCCOCCOCCOCCNC(=O)CCCCC(=O)NCCOCCOCCOCCNc4cc(-c5cccc([C@@H]6CN(C)Cc7c(Cl)cc(Cl)cc76)c5)ncn4)ncn3)c2)C1` [Example 8-13, N,N′-Bis{2-[2-(2-{2-[(6-{3-[(4S)-6,8-dichloro-2-methyl-1,2,3,4-tetrahydroisoquinolin-4-yl]phenyl}pyrimidin-4-yl)amino]ethoxy}ethoxy)ethoxy]ethyl}hexanediamide hydrochloride], the pIC50 is 7.97.
`CN1Cc2c(Cl)cc(Cl)cc2[C@H](c2cccc(-c3cc(NCCOCCOCCOCCNC(=O)[C@H](O)[C@@H](O)C(=O)NCCOCCOCCOCCNc4cc(-c5cccc([C@@H]6CN(C)Cc7c(Cl)cc(Cl)cc76)c5)ncn4)ncn3)c2)C1` [Example 8-10, (2R,3R)-N,N′-Bis{2-[2-(2-{2-[(6-{3-[(4S)-6,8-dichloro-2-methyl-1,2,3,4-tetrahydroisoquinolin-4-yl]phenyl}pyrimidin-4-yl)amino]ethoxy}ethoxy)ethoxy]ethyl}-2,3-dihydroxybutanediamide hydrochloride]: the pIC50 was 8.49.
The result for `COc1cc(-c2cccc([C@@H]3CN(C)Cc4c(Cl)cc(Cl)cc43)c2)ccn1` [Example 1-11, (4S)-6,8-Dichloro-4-[3-(2-methoxypyridin-4-yl)phenyl]-2-methyl-1,2,3,4-tetrahydroisoquinoline trifluoroacetate] reads 5.79; that for `Cc1cc(-c2cccc([C@@H]3CN(C)Cc4c(Cl)cc(Cl)cc43)c2)cnn1` [Example 1-5, (4S)-6,8-Dichloro-2-methyl-4-[3-(6-methylpyridazin-4-yl)phenyl]-1,2,3,4-tetrahydroisoquinoline trifluoroacetate], 7.24.
Next, `CN1Cc2c(Cl)cc(Cl)cc2[C@H](c2cccc(-c3cc(OCCOCCOCCOCCNC(=O)NCCCCNC(=O)NCCOCCOCCOCCOc4cc(-c5cccc([C@@H]6CN(C)Cc7c(Cl)cc(Cl)cc76)c5)ncn4)ncn3)c2)C1` [Example 7-31, 1,1′-Butane-1,4-diylbis(3-{2-[2-(2-{2-[(6-{3-[(4S)-6,8-dichloro-2-methyl-1,2,3,4-tetrahydroisoquinolin-4-yl]phenyl}pyrimidin-4-yl)oxy]ethoxy}ethoxy)ethoxy]ethyl}urea) hydrochloride]: 7.91; `CN1Cc2c(Cl)cc(Cl)cc2[C@H](c2cccc(-c3cn[nH]c3)c2)C1` [Example 1-4, (4S)-6,8-dichloro-2-methyl-4-[3-(1H-pyrazol-4-yl)phenyl]-1,2,3,4-tetrahydroisoquinoline]: 6.59; `CN1Cc2c(Cl)cc(Cl)cc2[C@H](c2cccc(-c3cn(CCOCCOCCOCCNC(=O)[C@@H](O)[C@H](O)C(=O)NCCOCCOCCOCCn4cc(-c5cccc([C@@H]6CN(C)Cc7c(Cl)cc(Cl)cc76)c5)nn4)nn3)c2)C1` [Example 8-9, (2S,3S)-N,N′-Bis[2-(2-{2-[2-(4-{3-[(4S)-6,8-dichloro-2-methyl-1,2,3,4-tetrahydroisoquinolin-4-yl]phenyl}-1H-1,2,3-triazol-1-yl)ethoxy]ethoxy}ethoxy)ethyl]-2,3-dihydroxybutanediamide hydrochloride]: 8.44.
Next, `CN1Cc2c(Cl)cc(Cl)cc2[C@H](c2cccc(-c3ccc(NCCOCCOCCOCCNC(=O)NCCCCNC(=O)NCCOCCOCCOCCNc4ccc(-c5cccc([C@@H]6CN(C)Cc7c(Cl)cc(Cl)cc76)c5)cn4)nc3)c2)C1` [Example 7-17, 1,1′-Butane-1,4-diylbis(3-{2-[2-(2-{2-[(5-{3-[(4S)-6,8-dichloro-2-methyl-1,2,3,4-tetrahydroisoquinolin-4-yl]phenyl}pyridin-2-yl)amino]ethoxy}ethoxy)ethoxy]ethyl}urea) hydrochloride]: 8.36; `CN1Cc2c(Cl)cc(Cl)cc2[C@H](c2cccc(-c3cccnc3)c2)C1` [Example 1-2, (4S)-6,8-Dichloro-2-methyl-4-[3-(pyridin-3-yl)phenyl]-1,2,3,4-tetrahydroisoquinoline trifluoroacetate]: 6.66; `CN1Cc2c(Cl)cc(Cl)cc2[C@H](c2cccc(-c3ccc(NCCOCCOCCNC(=O)NCCCCNC(=O)NCCOCCOCCNc4ccc(-c5cccc([C@@H]6CN(C)Cc7c(Cl)cc(Cl)cc76)c5)cn4)nc3)c2)C1` [Example 7-7, 1,1′-Butane-1,4-diylbis {3-[2-(2-{2-[(5-{3-[(4S)-6,8-dichloro-2-methyl-1,2,3,4-tetrahydroisoquinolin-4-yl]phenyl}pyridin-2-yl)amino]ethoxy}ethoxy)ethyl]urea}]: 8.17.
On to `CN1Cc2c(Cl)cc(Cl)cc2[C@H](c2cccc(-c3nnc(CCOCCOCCOCCNC(=O)NCCCCNC(=O)NCCOCCOCCOCCc4nnc(-c5cccc([C@@H]6CN(C)Cc7c(Cl)cc(Cl)cc76)c5)[nH]4)[nH]3)c2)C1` [Example 7-22, 1,1′-Butane-1,4-diylbis {3-[2-(2-{2-[2-(5-{3-[(4S)-6,8-dichloro-2-methyl-1,2,3,4-tetrahydroisoquinolin-4-yl]phenyl}-4H-1,2,4-triazol-3-yl)ethoxy]ethoxy}ethoxy)ethyl]urea} diformate], for which the pIC50 was 8.24.
For the molecule `CN1Cc2c(Cl)cc(Cl)cc2[C@H](c2cccc(-c3cn(CCOCCOCCOCCNC(=O)NCCNC(=O)NCCNC(=O)NCCOCCOCCOCCn4cc(-c5cccc([C@@H]6CN(C)Cc7c(Cl)cc(Cl)cc76)c5)nn4)nn3)c2)C1` [Example 6-13, 1,1′-[Carbonylbis(iminoethane-2,1-diyl)]bis {3-[2-(2-{2-[2-(4-{3-[(4S)-6,8-dichloro-2-methyl-1,2,3,4-tetrahydroisoquinolin-4-yl]phenyl}-1H-1,2,3-triazol-1-yl)ethoxy]ethoxy}ethoxy)ethyl]urea}hydrochloride], the pIC50 is 8.68.
As to `CN1Cc2c(Cl)cc(Cl)cc2[C@H](c2cccc(-c3ccnc(C#N)c3)c2)C1` [Example 1-7, 4-{3-[(4S)-6,8-Dichloro-2-methyl-1,2,3,4-tetrahydroisoquinolin-4-yl]phenyl}pyridine-2-carbonitrile], the pIC50 is 6.20.
Turning to `CN1Cc2c(Cl)cc(Cl)cc2[C@H](c2cccc(-c3nnc(CCOCCOCCNC(=O)NCCCCNC(=O)NCCOCCOCCc4nnc(-c5cccc([C@@H]6CN(C)Cc7c(Cl)cc(Cl)cc76)c5)o4)o3)c2)C1` [Example 7-23, 1,1′-Butane-1,4-diylbis[3-(2-{2-[2-(5-{3-[(4S)-6,8-dichloro-2-methyl-1,2,3,4-tetrahydroisoquinolin-4-yl]phenyl}-1,3,4-oxadiazol-2-yl)ethoxy]ethoxy}ethyl)urea]tetraformate], the pIC50 was 8.26.
`CN1Cc2c(Cl)cc(Cl)cc2[C@H](c2cccc(-c3ccc(NCCOCCOCCNC(=O)c4ccccc4C(=O)NCCOCCOCCNc4ccc(-c5cccc([C@@H]6CN(C)Cc7c(Cl)cc(Cl)cc76)c5)cn4)nc3)c2)C1` [Example 8-4, N,N′-Bis[2-(2-{2-[(5-{3-[(4S)-6,8-dichloro-2-methyl-1,2,3,4-tetrahydroisoquinolin-4-yl]phenyl}pyridin-2-yl)amino]ethoxy}ethoxy)ethyl]benzene-1,2-dicarboxamide hydrochloride]: the pIC50 is 6.94.
